Assay results reported in patent publication US10736883B2, “Triazole furan compounds as agonists of the APJ receptor” (AMGEN INC., priority 2016, dated 2020).

Biological target: APJ receptor (Homo sapiens (Human), UniProt P35414)
Assay: [35S]GTPγS binding assay on membranes from CHO cells stably expressing human APJ receptor
Assay type: biochemical
Settings: membranes of CHO cells stably expressing human APJ receptor, means of several independent experiments, read-out: Activity hAPJ SPA EC50 IP
How it was run: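 Membranes from CHO cells stably expressing human APJ were incubated with 0.2 nM [35S]GTPγS and ligands for 90 min at RT in 20 mM HEPES pH 7.5, 5 mM MgCl2, 200 mM NaCl, 3 μM GDP, 0.1% BSA with WGA PS beads. Nonspecific binding was set with 100 μM GTPγS. EC50 came from non-linear regression.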

Sequence of APJ receptor (P35414 whole entry): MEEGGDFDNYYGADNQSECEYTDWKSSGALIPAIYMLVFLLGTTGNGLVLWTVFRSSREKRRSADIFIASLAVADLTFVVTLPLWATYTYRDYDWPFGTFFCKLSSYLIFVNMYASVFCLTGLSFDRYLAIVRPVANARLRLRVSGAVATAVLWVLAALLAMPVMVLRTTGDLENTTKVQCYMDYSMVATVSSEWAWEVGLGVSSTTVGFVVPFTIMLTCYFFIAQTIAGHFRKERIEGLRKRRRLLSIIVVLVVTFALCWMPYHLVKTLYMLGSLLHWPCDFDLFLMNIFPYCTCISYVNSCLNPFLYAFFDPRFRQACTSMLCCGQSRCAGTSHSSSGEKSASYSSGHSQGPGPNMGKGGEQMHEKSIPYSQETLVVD

Row | Structure (SMILES) | EC50
1 | COc1cccc(OC)c1-n1c(NS(=O)(=O)[C@@H]2CCCN(C(=O)N(C)C)C2)nnc1-c1ccco1 (single isomer, unassigned) [Example 340.0, (S)-3-(N-(4-(2,6-Dimethoxyphenyl)-5-(furan-2-yl)-4H-1,2,4-triazol-3-yl)sulfamoyl)-N,N-dimethylpiperidine-1-carboxamide or (R)-3-(N-(4-(2,6-dimethoxyphenyl)-5-(furan-2-yl)-4H-1,2,4-triazol-3-yl)sulfamoyl)-N,N-dimethylpiperidine-1-carboxamide] | 75 nM
2 | COc1cccc(OC)c1-n1c(NS(=O)(=O)[C@@H](C)CN2C(=O)CCC[C@]2(C)C#N)nnc1-c1ccco1 (single isomer, unassigned) [Example 341.0] | 81 nM
3 | COc1cccc(OC)c1-n1c(NS(=O)(=O)[C@H](C)CN2C(=O)CCC[C@]2(C)C#N)nnc1-c1ccco1 (single isomer, unassigned) [Example 342.0] | 121 nM
4 | COc1cccc(OC)c1-n1c(NS(=O)(=O)[C@H]2CON(C)[C@@H]2c2ncc(F)cn2)nnc1-c1ccco1 (single isomer, unassigned) [Example 343.0, (3R,4R)—N-(4-(2,6-Dimethoxyphenyl)-5-(furan-2-yl)-4H-1,2,4-triazol-3-yl)-3-(5-fluoropyrimidin-2-yl)-2-methylisoxazolidine-4-sulfonamide or (3S,4S)—N-(4-(2,6-dimethoxyphenyl)-5-(furan-2-yl)-4H-1,2,4-triazol-3-yl)-3-(5-fluoropyrimidin-2-yl)-2-methylisoxazolidine-4-sulfonamide] | 200 nM
5 | COc1cccc(OC)c1-n1c(NS(=O)(=O)[C@@H]2COCC[C@@H]2O)nnc1-c1ccc(C)o1 (single isomer, unassigned) [Example 402.0] | 65 nM
6 | COc1cccc(OC)c1-n1c(NS(=O)(=O)[C@@H]2COCC[C@@H]2O)nnc1-c1ccc(C)o1 (single isomer, unassigned) [Example 403.0] | 57 nM
7 | COc1cccc(OC)c1-n1c(NS(=O)(=O)[C@@H]2COCC[C@@H]2O)nnc1-c1ccc(C)o1 (single isomer, unassigned) [Example 404.0] | 36 nM
8 | COc1cccc(OC)c1-n1c(NS(=O)(=O)[C@@H]2COCC[C@@H]2O)nnc1-c1ccc(C)o1 (single isomer, unassigned) [Example 405.0] | 64 nM
9 | COc1cccc(OC)c1-n1c(NS(=O)(=O)[C@@H]2CC[C@@H](O)[C@H](O)C2)nnc1-c1ccc(C)o1 (single isomer, unassigned) [Example 406.0] | 67 nM
10 | COc1cccc(OC)c1-n1c(NS(=O)(=O)[C@@H]2CC[C@@H](O)[C@H](O)C2)nnc1-c1ccc(C)o1 (single isomer, unassigned) [Example 407.0] | 180 nM
11 | COc1cccc(OC)c1-n1c(NS(=O)(=O)c2cccc([C@H](C)O)c2)nnc1-c1ccc(C)o1 (single isomer, unassigned) [Example 410.0, (R)-N-(4-(2,6-dimethoxyphenyl)-5-(5-methylfuran-2-yl)-4H-1,2,4-triazol-3-yl)-3-(1-hydroxyethyl)benzenesulfonamide or (S)-N-(4-(2,6-dimethoxyphenyl)-5-(5-methylfuran-2-yl)-4H-1,2,4-triazol-3-yl)-3-(1-hydroxyethyl)benzenesulfonamide] | 11 nM
12 | COc1cccc(OC)c1-n1c(NS(=O)(=O)c2cccc([C@@H](C)O)c2)nnc1-c1ccc(C)o1 (single isomer, unassigned) [Example 411.0, (R)-N-(4-(2,6-dimethoxyphenyl)-5-(5-methylfuran-2-yl)-4H-1,2,4-triazol-3-yl)-3-(1-hydroxyethyl)benzenesulfonamide or (S)-N-(4-(2,6-dimethoxyphenyl)-5-(5-methylfuran-2-yl)-4H-1,2,4-triazol-3-yl)-3-(1-hydroxyethyl)benzenesulfonamide] | 32 nM
13 | COc1cccc(OC)c1-n1c(NS(=O)(=O)[C@H](C)[C@H](O)c2cccc(Cl)n2)nnc1-c1ccc(C)o1 (stereo in doubt) [Example 85.0] | 0.17 nM
14 | COc1cccc(OC)c1-n1c(NS(=O)(=O)[C@H](C)[C@H](O)c2cccc(C)n2)nnc1-c1ccc(C)o1 (stereo in doubt) [Example 87.0] | 0.41 nM
15 | COc1cccc(OC)c1-n1c(NS(=O)(=O)[C@H](C)[C@H](O)c2ccccn2)nnc1-c1ccc(C)o1 (stereo in doubt) [Example 90.0, (1R,2R)-N-(4-(2,6-dimethoxyphenyl)-5-(5-methylfuran-2-yl)-4H-1,2,4-triazol-3-yl)-1-hydroxy-1-(pyridin-2-yl)propane-2-sulfonamide compound and (1S,2S)-N-(4-(2,6-dimethoxyphenyl)-5-(5-methylfuran-2-yl)-4H-1,2,4-triazol-3-yl)-1-hydroxy-1-(pyridin-2-yl)propane-2-sulfonamide] | 3.9 nM
16 | COc1cccc(OC)c1-n1c(NS(=O)(=O)CCN2Cc3ccccc3C2=O)nnc1-c1ccco1 [Example 2.0, N-(4-(2,6-Dimethoxyphenyl)-5-(2-furanyl)-4H-1,2,4-triazol-3-yl)-2-(1-oxo-1,3-dihydro-2H-isoindol-2-yl)ethanesulfonamide] | 13000 nM
17 | COc1ncnc(OC)c1-n1c(NS(=O)(=O)[C@@H](C)[C@H](OC)c2ncc(C)cn2)nnc1-c1ccc(C)o1 [Example 3.0, (1R,2S)—N-(4-(4,6-dimethoxypyrimidin-5-yl)-5-(5-methylfuran-2-yl)-4H-1,2,4-triazol-3-yl)-1-methoxy-1-(5-methylpyrimidin-2-yl)propane-2-sulfonamide] | 0.31 nM
18 | COc1cccc(OC)c1-n1c(NS(=O)(=O)CCc2ccc(C#N)cn2)nnc1-c1ccc(C)o1 [Example 19.0, 2-(5-cyano-2-pyridinyl)-N-(4-(2,6-dimethoxyphenyl)-5-(5-methyl-2-furanyl)-4H-1,2,4-triazol-3-yl)ethanesulfonamide] | 0.29 nM
19 | COc1cccc(OC)c1-n1c(NS(=O)(=O)CCc2ncc(Cl)cc2N2CCC2=O)nnc1-c1ccco1 [Example 27.0, 2-(5-chloro-3-(2-oxo-1-azetidinyl)-2-pyridinyl)-N-(4-(2,6-dimethoxyphenyl)-5-(2-furanyl)-4H-1,2,4-triazol-3-yl)ethanesulfonamide] | 0.46 nM
20 | COc1cccc(OC)c1-n1c(NS(=O)(=O)CCc2ccc(C#N)cn2)nnc1-c1ccco1 [Example 35.0, 2-(5-cyano-2-pyridinyl)-N-(4-(2,6-dimethoxyphenyl)-5-(2-furanyl)-4H-1,2,4-triazol-3-yl)ethanesulfonamide] | 3.5 nM
21 | COc1cccc(OC)c1-n1c(NS(=O)(=O)CCc2ncc(C)cn2)nnc1-c1ccco1 [Example 39.0, N-(4-(2,6-dimethoxyphenyl)-5-(2-furanyl)-4H-1,2,4-triazol-3-yl)-2-(5-methyl-2-pyrimidinyl)ethanesulfonamide] | 6.6 nM
22 | COc1cccc(OC)c1-n1c(NS(=O)(=O)[C@@H](C)[C@H](O)c2ccc(C#N)cc2F)nnc1-c1ccc(C)o1 [Example 75.0] | 0.55 nM
23 | COc1cccc(OC)c1-n1c(NS(=O)(=O)[C@H](CCO)Cc2ncc(C)cn2)nnc1-c1ccc(C)o1 [Example 80.0] | 1.1 nM
24 | CCc1ccc(-c2nnc(NS(=O)(=O)CCc3ncc(F)cn3)n2-c2c(OC)cccc2OC)o1 [Example 98.0, N-(4-(2,6-dimethoxyphenyl)-5-(5-ethyl-2-furanyl)-4H-1,2,4-triazol-3-yl)-2-(5-fluoro-2-pyrimidinyl)ethanesulfonamide] | 0.45 nM
